Drawing on PubChem BioAssay (NCI), this text covers TGI and GI50 for 10 compounds.

SMILES strings stand for the structures.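 Interpolation was linear, between the two tested concentrations surrounding the appropriate level; five concentrations were tested over 48 hours in 96-well plates. The concentration for 50% growth inhibition is given as GI50. The concentration for full growth arrest is given as TGI.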

Common to all, as to assay: NCI anticancer screen, dose series, 48 h
Test [1] relates to SF-268 CNS.
Test [2] has as its system A549 NSCLC.
Test [3] has as its system HOP-92 NSCLC.
The test system of test [4] is KM12 colon.
For test [5], the system named is EKVX NSCLC.
For test [6], the system named is MOLT-4 leukemia.
Test [7] deals with NCI-H226 lung.
Test [8] concerns NCI-H23 lung.
The subject of test [9] is SK-OV-3 ovarian.
Test [10] relates to NCI-H522 lung.

Take `O=C(/C=C/c1ccccc1Cl)c1cccc2ccccc12`: the TGI in [1] came to 28.4 µM; in test [2], 34 µM; in test [3], 34.9 µM; in test [4] it was 16.8 µM; in [5] it was 25.4 µM; in test [6] it was 5.59 µM. Besides, the TGI in test [7] is more than 100 µM; in test [8], 28.1 µM; in test [9], 34.8 µM; in test [10] it was 18.6 µM.

Consider `CCC(C)[C@H](NC(=O)NC(=O)NC(=O)CI)C(=O)OC` (some centres undefined), for which the GI50 in test [1] is 12.6 µM; in [2] it was 19.5 µM; in [3], 2670 nM; in [4], 16600 nM; in [5], 16.7 µM; in [6] it was 2470 nM. The GI50 in [7] is 3.84 µM; in [8], 16300 nM; in test [9], 17.2 µM; in test [10] it was 1510 nM. The TGI is 28.5 µM in [1]; 37 µM in [2]; 7.3 µM in test [3]; 33.2 µM in test [4]; 30.6 µM in test [5]; 6.74 µM in test [6]. In addition, the TGI stood at 19.1 µM in test [7], 35.8 µM in test [8], 31.4 µM in test [9] and 3.01 µM in test [10].

In the case of `COc1ccc(-c2nc(Nc3ccc(-c4nc5ccccc5[nH]4)cc3)nc(N3CCOCC3)n2)cc1`, the GI50 in test [1] is 2.82 µM; in test [2] it was 3.24 µM; in [3], 1800 nM; in test [4], 2060 nM; in [5], 2.6 µM; in test [6], 2150 nM. For the same compound, the GI50 in test [7] is 3.32 µM; in [8] it was 2570 nM; in test [9], 2.37 µM; in test [10], 2360 nM. Besides, the TGI in test [1] was 26.5 µM; in test [2], more than 100 µM; in test [3], 3.74 µM; in test [4], 5.69 µM; in test [5], more than 100 µM; in test [6], 6.13 µM. The TGI in test [7] worked out at 8.6 µM; in test [8], 9.9 µM; in test [9], 5.53 µM; in [10], 5.85 µM.

Consider `c1ccc(CN2CCC3(CC2)SSC2(CCN(Cc4ccccc4)CC2)SS3)cc1`, for which the TGI in test [1] was more than 100 µM; in test [2] it was more than 100 µM; in [3], more than 100 µM; in [4], more than 100 µM; in test [5], 62 µM; in [6] it was more than 100 µM. Moreover, the TGI in [7], in test [8], in test [9] and in test [10] was more than 100 µM throughout.

As for `CN1CC[C@]2(c3cccc(O)c3)CC(=O)/C(=C/c3ccccc3)[C@H]1C2`, the GI50 is 6.04 µM in test [1]; 3.57 µM in [5]; 9.03 µM in test [7]; 2870 nM in test [8]; 2.81 µM in test [9]. The TGI in test [1] was determined as 18.2 µM; in test [2], 11.1 µM; in test [3], 7.92 µM; in test [4] it was 13.9 µM; in [5] it was 13.9 µM; in [6], 6.96 µM. The TGI is 28.6 µM in test [7], 10.8 µM in [8], 8.73 µM in [9] and 7.76 µM in test [10].

Turning to `CC[C@@H](C(=O)[C@H](C)[C@H](O)[C@@H](C)[C@H]1O[C@H]([C@@H](CC)C(=O)O)CC[C@H]1C)C1O[C@]2(C=C[C@@H](O)[C@]3(CC[C@@](C)([C@H]4CC[C@](O)(CC)[C@H](C)O4)O3)O2)[C@H](C)C[C@@H]1C` (some centres undefined), the GI50 was 1.14 µM in test [1]; 0.267 µM in test [2]; 690 nM in test [3]; 723 nM in test [4]; 0.362 µM in test [5]; 1260 nM in [6]. In addition, the GI50 is 0.598 µM in [7], 296 nM in test [8], 4.1 µM in test [9] and 96.1 nM in [10]. Moreover, the TGI in test [1] worked out at 16.2 µM; in test [2], 21.6 µM; in test [3] it was 5.78 µM; in test [4], 12.9 µM; in [5] it was 17.5 µM; in [6], 4.75 µM. Further, the TGI in test [7] is 5.83 µM; in test [8], 7.24 µM; in [9] it was 51.1 µM; in test [10], 2.51 µM.

`NS(=O)(=O)c1ccc(NCc2cnc3ccccc3n2)cc1`: the TGI in test [1], in [2], in test [3], in [4], in [5] and in [6] was more than 100 µM in each case. Also, the TGI in test [7], in test [8], in test [9] and in test [10] was more than 100 µM each time.

Consider `COc1ccc2c(c1)[n+]([O-])c(-c1ccc(Br)cc1)c(N)[n+]2[O-]`, for which the TGI in test [1], in test [2], in test [3], in test [4], in [5] and in test [6] was more than 100 µM each time. The TGI in test [7] was more than 100 µM; in [8], 55.3 µM; in test [9] it was more than 100 µM; in [10], 29.7 µM.

Turning to `CC1=NN2C(c3ccc(C)cc3)=CSC2=NC(C)(C)C1`, the TGI in [1], in [2], in test [3], in [4], in test [5] and in test [6] was more than 100 µM in each case. In addition, the TGI in [7], in test [8], in [9] and in [10] was more than 100 µM in each case.

For the compound `Cc1ccc2c(c1)C1(OC(=O)c3ccccc31)c1ccc(F)cc1O2` (centres undefined), the TGI in test [1] is more than 100 µM; in test [2], more than 100 µM; in test [3] it was more than 100 µM; in test [4], more than 100 µM; in test [5], more than 100 µM; in test [6], 54.9 µM. Further, the results for the TGI in test [7], in test [9] and in test [10] were 85.8 µM, more than 100 µM and more than 100 µM, respectively.
